For data set [1], the system named is A549 (human lung carcinoma). The experiment in a line: in vitro cytotoxicity against human tumor cell replication, A549. The class given is cell-based. The following applies: for pEC50: read-out: ED50 (the source's name). The source says: (§1) Cancer cell used in cytotoxicity evaluation in vitro were all from human, including lung cancer cell line (A549), breast cancer cell line (MCF-7), ovarian cancer cell line (1A9), epidermoid nasopharyngeal carcinoma cell line (KB), vincristine-resistant cells (KB-VIN), melanoma cancer cell line (SK-MEL-2), ileocecal cancer cell line (HCT-8), renal carcinoma cell line (CAKI), bone cancer cell line (HOS), et al. the anti-cancer ability of the compound represented by half-effective amount (ED50). Control drug was V16 (Etoposide).

The subject of data set [2] is 1A9 (human ovarian carcinoma). The experiment in a line: in vitro cytotoxicity against human tumor cell replication, 1A9. It is filed as cell-based. The following applies: for pEC50: read-out: ED50 (the source's name).
Description: as §1

The subject of data set [3] is KB-VIN (vincristine-resistant KB cells, multi-drug resistant expressing P-glycoprotein). Description: in vitro cytotoxicity against human tumor cell replication, KB-VIN. It is filed as cell-based. The following applies: for pEC50: read-out: ED50 (the source's name).
Description: as §1

Data set [4] deals with KB (human epidermoid carcinoma of the nasopharynx). The experiment in a line: in vitro cytotoxicity against human tumor cell replication, KB. It is filed as cell-based. The settings on record: for pEC50: read-out: ED50 (the source's name).
Description: as §1

Another data set deals with Sarcoma S180. The experiment in a line: tumor-inhibiting test of mice S180. It is filed as in vivo, Kunming mice. The following applies: for Inhibition Rate: S180 tumor growth. How it is done:
(§2) The tumor activity […] testing represented by acute toxicity test and tumor-inhibiting testing of mice S180, Method: LD50 of desmosdumotin C to Kunming mice by vein route was obtained by the general acute toxicity test method. Sarcoma S180 was hypodermic inoculated to mice, drug administrated, compared drug group with control group, inhibition rate was calculated, P value show the statistical difference. […].

Data set [5] deals with 1A9 (human ovarian carcinoma). The following applies: IA9 ovarian cancer cell; background section; cited from earlier work.
Data set [6] concerns MCF-7 (breast cancer cell line). Description: in vitro cytotoxicity against human tumor cell replication, MCF-7. The class given is cell-based.
Description: as §1

Data set [7] shares this test system. The settings on record: background section; cited from earlier work.
The next data set in a line: in vivo. The settings on record: both sexes, Kunming, mouse, in vivo, Kunming mice, single vein injection, half male/half female. How it is done: as §2
A further data set relates to Kunming mice. The experiment in a line: in vivo. The settings on record: for Death Rate: Kunming, mouse, in vivo, iv, 14 days. As for the experimental part: as §2
For data set [8], the system named is KB-VIN (vincristine-resistant KB cells, multi-drug resistant expressing P-glycoprotein). The following applies: background section; cited from earlier work.
For data set [9], the system named is KB (human epidermoid carcinoma of the nasopharynx). The following applies: parent KB cell line; background section; cited from earlier work.
The next data set deals with human tumor cell lines. The experiment in a line: in vitro evaluation against a panel of several cancer cell lines. The class given is cell-based.
Description: as §1

The structures appear in SMILES notation. pEC50: −log10 of the molar value. In brackets after ≈: the same amount, converted by molar mass. Like-named read-outs stand apart in the source and are kept apart here.

For the compound `COC1=C(C)C(=O)C(=C(O)C=Cc2cccs2)C(=O)C1(C)C` [Compound 8, 2-(1′-Hydroxy-3′-thiophen-2″-yl-allylidene)-5-methoxy-4,6,6-trimethyl-cyclohex-4-ene-1,3-dione], the pEC50 in data set [1] was 4.85; in data set [2], 4.90; in [3], 4.97; in data set [4], 4.76.

As for `COC1=C(C)C(=O)C(=C(O)C=Cc2ccc(OC)cc2)C(=O)C1(C)C` [Compound 5, 2-[1′-Hydroxy-3-(4-methoxyphenyl)-allylidene]-5-methoxy-4,6,6-trimethyl-cyclohex-4-ene-1,3-dione], the pEC50 is 5.16 in [1] (Homo sapiens); 5.14 in data set [2] (Homo sapiens); 5.09 in data set [3] (Homo sapiens, KBVIN); 5.02 in data set [4] (Homo sapiens).

In the case of `COC1=C(C)C(=O)C(=C(O)C=Cc2ccc(O)cc2)C(=O)C1(C)C` [Compound 6, 2-[1′-Hydroxy-3-(4-hydroxyphenyl)-allylidene]-5-methoxy-4,6,6-trimethyl-cyclohex-4-ene-1,3-dione], the pEC50 in data set [1] (Homo sapiens) was 5.02; in data set [2] (Homo sapiens) it was 5.05; in data set [3] (Homo sapiens, KBVIN), 4.93; in [4] (Homo sapiens), 4.93.

As to `COC1=C(C)C(=O)/C(=C(O)/C=C/c2ccccc2)C(=O)C1(C)C` [Desmosdumotin C, 2-[(1′-hydroxy-2′-ene-3′-phenyl)propenylene]-5-methoxy-4,6,6-trimethyl-1,3-cyclohexene (4,5)-dione], the “Tumor Weight X ± SD” value in the data set with Sarcoma S180 (S180, 2.5 mg/kg iv × 10qd) is 1.99 ± 0.18; with Sarcoma S180 (S180, 5 mg/kg iv × 10qd), 1.62 ± 0.22; in the data set on Sarcoma S180 (S180, 10 mg/kg iv × 10qd), 1.51 ± 0.21. For the same compound, the “Inhibition Rate” value in the data set with Sarcoma S180 (2.5 mg/kg iv × 10qd) is 30.18%; with Sarcoma S180 (5 mg/kg iv × 10qd), 43.16%; in the data set on Sarcoma S180 (10 mg/kg iv × 10qd), 47.02%. Moreover, the pEC50 in data set [2] (Homo sapiens) is 4.89; in data set [3] (Homo sapiens, KBVIN) it was 4.75; in [6] (Homo sapiens, MCF7, read-out: ED50 (the source's name)) it was 4.89; in data set [4] (Homo sapiens), 4.68. For the same compound, the ED50 in [5] was less than 4.0 µg/mL; in data set [7] it was less than 3.8 µg/mL; in data set [8], less than 5.6 µg/mL; in data set [9], less than 6.5 µg/mL. The LD50 (usually the dose expected to kill half of the subjects tested) in “in vivo” (read-out: LD50) was greater than 46 mg/kg; in the data set “in vivo” (read-out: LD50 (95% CL)) it was 39.8 to 53.1 mg/kg; in the data set with Kunming mice (Kunming mice, single vein injection, half male/half female), 46.0 mg/kg. Further, the “Death Rate” value was 0% in the data set on Kunming mice (both, 32.8 mg/kg); 40% in the data set on Kunming mice (both, 40.96 mg/kg); 70% in the data set on Kunming mice (both, 51.2 mg/kg); 90% in the data set with Kunming mice (both, 64 mg/kg); 100% with Kunming mice (both, 80 mg/kg); 0% in the data set with Kunming mice (female, 32.8 mg/kg). Also, the “Death Rate” value with Kunming mice (female, 40.96 mg/kg) worked out at 40%; in the data set with Kunming mice (female, 51.2 mg/kg), 80%; with Kunming mice (female, 64 mg/kg), 80%; in the data set with Kunming mice (female, 80 mg/kg) it was 100%; in the data set on Kunming mice (male, 32.8 mg/kg), 0%; in the data set on Kunming mice (male, 40.96 mg/kg), 40%. The “Death Rate” value in the data set on Kunming mice (male, 51.2 mg/kg) was 60%; in the data set on Kunming mice (male, 64 mg/kg), 100%; in the data set with Kunming mice (male, 80 mg/kg) it was 100%.

Take `CC1=C(O)C(C)(C)C(=O)/C(=C(O)\C=C\c2ccccc2)C1=O` [Compound 12, 2-[(1′-hydroxy-2′-ene-3′-phenyl)propenylene]-5-hydroxy-4,6,6-trimethyl-1,3-cyclohexene(4,5)-dione]: the ED50 was 9.0 µg/mL (≈ 30.2 µM) in data set [1]; 8.0 µg/mL (≈ 26.8 µM) in [2]; 6.5 µg/mL (≈ 21.8 µM) in data set [3]; greater than 5 µg/mL in data set [6]; 10.5 µg/mL (≈ 35.2 µM) in data set [4].

On to `COC1=CC(=O)c2c(oc(-c3ccccc3)cc2=O)C1(C)C` [Compound 14, 7-methoxy-8,8-dimethyl-2-phenyl-8H-chromene-4,5-dione], for which the results for the ED50 in [1], in data set [2] and in data set [4] were 2.0 µg/mL (≈ 6.75 µM), 0.7 µg/mL (≈ 2.36 µM) and 1.8 µg/mL (≈ 6.07 µM), respectively.

Take `COC1=C(C)C(=O)C(=C(O)C=Cc2ccccc2)C(=O)C1(C)C` [Compound 13, 2-[(1′-hydroxy-2′-ene-3′-phenyl)propenylene)-5-methoxy-4,6,6-trimethyl-1,3-cyclohexene (4,5)-diketone]: the ED50 was greater than 5 µg/mL in [1]; 3.63 µg/mL (≈ 11.6 µM) in data set [2]; 2.9 µg/mL (≈ 9.28 µM) in data set [3]; greater than 5 µg/mL in data set [6]; 4.1 µg/mL (≈ 13.1 µM) in data set [4].

On to `COC1=C(C)C(=O)C(=C(O)C=Cc2ccc(Br)cc2)C(=O)C1(C)C` [Compound 2, 2-[1′-Hydroxy-3-(4-bromophenyl)-allylidene]-5-methoxy-4,6,6-trimethylcyclohex-4-ene-1,3-dione], for which the pEC50 in [1] (Homo sapiens) is 5.45; in data set [2] (Homo sapiens), 5.55; in [3] (Homo sapiens, KBVIN) it was 5.32; in [4] (Homo sapiens), 5.36.

Turning to `CC1=C(O)C(C)(C)c2oc(-c3ccccc3)cc(=O)c2C1=O` [Desmosdumotin B, 7-hydroxyl-6,8,8-trimethyl-2-phenyl-8H-chromene-4,5-dione], the ED50 is 28.0 µg/mL (≈ 94.5 µM) in data set [1]; 36.0 µg/mL (≈ 121 µM) in data set [2]; 2.0 µg/mL (≈ 6.75 µM) in data set [3]; greater than 5 µg/mL in data set [6]; greater than 40 µg/mL in data set [4].

For the compound `CC1=C(O)C2=C(OC(c3ccccc3)CC2=O)C(C)(C)C1=O` (stereo not drawn) [Compound 11, 7-hydroxyl-6,8,8-trimethyl-2-phenyl-2,3-dihydrogen-8H-chromene-4,5-dione], the ED50 was 13.5 µg/mL (≈ 45.3 µM) in data set [1]; 8.0 µg/mL (≈ 26.8 µM) in [2]; 7.5 µg/mL (≈ 25.1 µM) in data set [3]; greater than 5 µg/mL in data set [6]; 10.5 µg/mL (≈ 35.2 µM) in data set [4].

As for `COC1=C(C)C(=O)C(=C(O)C=Cc2cccc(OC)c2)C(=O)C1(C)C` [Compound 4, 2-[1′-Hydroxy-3-(3-methoxyphenyl)-allylidene]-5-methoxy-4,6,6-trimethyl-cyclohex-4-ene-1,3-dione], the pEC50 in data set [1] (Homo sapiens) was 5.09; in data set [2] (Homo sapiens), 5.07; in [3] (Homo sapiens, KBVIN), 5.16; in [4] (Homo sapiens), 5.02. The compound also returned an ED50 in [2] of 0.7 µg/mL (≈ 2.04 µM). The “anti-tumor activity compared with the leading compound” value in the data set on human tumor cell lines (versus desmosdumotin C) was “more significant anti-tumor activity than the leading compound”.

Regarding `COC1=C(C)C(=O)C(=C(O)C=Cc2ccco2)C(=O)C1(C)C` [Compound 7, 2-(3′-Furan-2″-yl-1′-hydroxy-allylidene)-5-methoxy-4,6,6-trimethyl-cyclohex-4-ene-1,3-dione], the pEC50 in [1] is 4.48; in data set [2] it was 4.58; in data set [3], 4.54; in [4], 4.49.

As for `COC1=C(C)C(=O)C(=C(O)C=Cc2nccs2)C(=O)C1(C)C` [Compound 9], the pEC50 was 4.96 in data set [1], 4.96 in [2], 5.03 in [3] and 4.87 in data set [4].

For the compound `COC1=C(C)C(=O)C(=C(O)C=Cc2ccccc2OC)C(=O)C1(C)C` [Compound 3, 2-[1′-Hydroxy-3-(2-methoxyphenyl)-allylidene]-5-methoxy-4,6,6-trimethylcyclohex-4-ene-1,3-dione], the pEC50 in data set [1] (Homo sapiens) was 5.06; in [2] (Homo sapiens), 5.09; in data set [3] (Homo sapiens, KBVIN), 5.07; in [4] (Homo sapiens), 4.98. Besides, the “activity relative to desmosdumotin C” value in the data set with human tumor cell lines (fold of desmosdumotin C) was 4 times.

These data come from patent US20090233998A1, “Desmosdumotins, the Method for Preparing the Same and Use as Anti-Tumor or Anti-AIDS Agents” (priority 2004, published 2009).
